Consider 29 compounds from US7670613B2, “Androgen modulators” (Pfizer Inc., priority 2004, dated 2010).

For the first test, the target named is T1, hAR (Homo sapiens, UniProt P10275).
T1 construct: made in house; host or cells: baculovirus/Sf9 insect cells
T1 sequence (P10275 1-920): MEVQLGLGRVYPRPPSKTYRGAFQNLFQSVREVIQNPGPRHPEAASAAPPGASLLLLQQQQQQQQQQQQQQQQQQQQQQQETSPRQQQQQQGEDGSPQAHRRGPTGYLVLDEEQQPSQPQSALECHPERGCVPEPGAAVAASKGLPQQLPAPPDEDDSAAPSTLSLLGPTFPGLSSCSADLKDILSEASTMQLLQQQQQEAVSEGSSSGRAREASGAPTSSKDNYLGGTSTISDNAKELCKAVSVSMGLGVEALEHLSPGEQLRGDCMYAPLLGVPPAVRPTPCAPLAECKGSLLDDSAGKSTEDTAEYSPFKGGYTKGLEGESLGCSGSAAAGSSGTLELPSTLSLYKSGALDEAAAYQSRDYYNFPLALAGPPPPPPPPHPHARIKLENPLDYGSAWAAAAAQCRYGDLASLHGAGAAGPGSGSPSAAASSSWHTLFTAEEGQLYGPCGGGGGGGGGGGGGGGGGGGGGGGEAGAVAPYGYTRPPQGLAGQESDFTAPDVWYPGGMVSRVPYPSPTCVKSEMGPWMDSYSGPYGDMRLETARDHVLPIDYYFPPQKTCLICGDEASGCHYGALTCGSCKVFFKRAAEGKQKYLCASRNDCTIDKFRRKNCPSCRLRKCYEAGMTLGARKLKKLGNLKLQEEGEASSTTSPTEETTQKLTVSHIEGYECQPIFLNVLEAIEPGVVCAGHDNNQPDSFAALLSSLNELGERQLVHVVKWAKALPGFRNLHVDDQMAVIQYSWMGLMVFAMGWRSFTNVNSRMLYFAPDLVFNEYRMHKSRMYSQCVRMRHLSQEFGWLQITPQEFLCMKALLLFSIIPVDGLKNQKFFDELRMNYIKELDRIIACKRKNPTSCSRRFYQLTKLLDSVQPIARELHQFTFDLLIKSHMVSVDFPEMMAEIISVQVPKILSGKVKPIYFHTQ
As to the kind of experiment: Competitive binding analysis on baculovirus/Sf9 generated hAR extracts with 3H-DHT tracer. Particulars: AR Binding IC50, hAR extract, 1 nM 3H-DHT, one hour at 4° C.; mean of multiple tests. The procedure:
The description below describes how the assay was carried out.
Competitive binding analysis was performed on baculovirus/Sf9 generated hAR extracts in the presence or absence of different concentrations of test agent and a fixed concentration of ^3H-dihydrotestosterone (^3H-DHT) as tracer. This binding assay method is a modification of a protocol previously described (Liao S., et. al. J. Steroid Biochem. 20:11-17 1984). Briefly, progressively decreasing concentrations of compounds are incubated in the presence of hAR extract (Chang et al. P.N.A.S. Vol. 89, pp. […], 1992), hydroxylapatite, and 1 nM ^3H-DHT for one hour at 4° C. Subsequently, the binding reactions are washed three times to completely remove excess unbound ^3H-DHT. hAR bound ^3H-DHT levels are determined in the presence of compounds (i.e. competitive binding) and compared to levels bound when no competitor is present (i.e. maximum binding). Compound binding affinity to the hAR is expressed as the concentration of compound at which one half of the maximum binding is inhibited.
Consider `CO[C@H]1CCC[C@@H]1Oc1ccc(C#N)c(Cl)c1` (relative stereo) [Example 35, 2-Chloro-4-(trans-2-methoxy-cyclopentyloxy)-benzonitrile], for which the IC50 was determined as 97 nM.

Turning to `CO[C@@H]1CCCC[C@H]1Oc1ccc(C#N)c(Cl)c1` (relative stereo) [Example 39, 2-Chloro-4-(trans-2-methoxy-cyclohexyloxy)-benzonitrile], the IC50 was determined as 76 nM.

As to `CC1CCCC(Oc2ccc(C#N)c(Cl)c2)C1C` (centres unmarked) [Example 20, 2-Chloro-4-(2,3-dimethyl-cyclohexyloxy)-benzonitrile], the IC50 amounted to 227 nM.

`CC1CCCCC1Oc1ccc(C#N)c(Cl)c1` (centres unmarked) [Example 28, 2-Chloro-4-(2-methyl-cyclohexyloxy)-benzonitrile]: the IC50 turned out to be 49 nM.

In the case of `N#Cc1ccc(OC2CCCCC2c2ccccc2)cc1Cl` (centres unmarked) [Example 29, 2-Chloro-4-(2-phenyl-cyclohexyloxy)-benzonitrile], the IC50 was 89 nM.

Turning to `C[C@H]1CCCC[C@@H]1Oc1ccc(C#N)c(Cl)c1` [Example 30, 2-Chloro-4-(2-(S)-methyl-(S)-cyclohexyloxy)-benzonitrile], the IC50 amounted to 24 nM.

As to `N#Cc1ccc(O[C@@H]2CCCC[C@@H]2c2ccccc2)cc1Cl` [Example 56, (1R,2R)-2-Chloro-4-(2-phenyl-cyclohexyloxy)-benzonitrile], the IC50 stood at 366 nM.

With `N#Cc1ccc(O[C@@H]2CCCC[C@H]2c2ccccc2)cc1Cl` [Example 58, (1R,2S) 2-Chloro-4-(2-phenyl-cyclohexyloxy)-benzonitrile], the IC50 turned out to be 278 nM.

Still in this test, the particulars now being: hAR extract, 1 nM 3H-DHT, one hour at 4° C.; mean of multiple tests; read-out: AR Binding IC50.
For `C[C@H]1CCC[C@@H]1Oc1ccc(C#N)c(C(F)(F)F)c1` (relative stereo) [Example 2, 4-(trans-2-Methyl-cyclopentyloxy)-2-trifluoromethyl-benzonitrile], the IC50 turned out to be 153 nM.

As to `C=CCO[C@H]1CCC[C@H]1Oc1ccc(C#N)c(Cl)c1` (relative stereo) [Example 37, 4-(cis-2-Allyloxy-cyclopentyloxy)-2-chloro-benzonitrile], the IC50 was 134 nM.

As for `C=CCO[C@H]1CCC[C@@H]1Oc1ccc(C#N)c(Cl)c1` (relative stereo) [Example 38, 4-(trans-2-Allyloxy-cyclopentyloxy)-2-chloro-benzonitrile], the IC50 came to 120 nM.

On to `N#Cc1ccc(OC2CCCCCC2)cc1C(F)(F)F` [Example 5, 4-cycloheptyloxy-2-trifluoromethyl-benzonitrile], for which the IC50 came out at 319 nM.

With `CC1CCCC(Oc2ccc(C#N)c(C(F)(F)F)c2)C1C` (centres unmarked) [Example 6, 4-(2,3-Dimethyl-cyclohexyloxy)-2-trifluoromethyl-benzonitrile], the IC50 was found to be 356 nM.

Consider `C=C(C)[C@H]1CC[C@H](C)[C@@H](Oc2ccc(C#N)c(C(F)(F)F)c2)C1` [Example 13, (1S,2S,5S)-4-(5-Isopropenyl-2-methyl-cyclohexyloxy)-2-trifluoromethyl-benzonitrile], for which the IC50 is 102 nM.

For the compound `COC1CCC(Oc2ccc(C#N)c(C(F)(F)F)c2)CC1` (centres unmarked) [Example 15, 4-(4-Methoxy-cyclohexyloxy)-2-trifluoromethyl-benzonitrile], the IC50 was 243 nM.

Take `C[C@H]1CC[C@@H](Oc2ccc(C#N)c(C(F)(F)F)c2)CC1` [Example 16]: the IC50 came to 479 nM.

As for `C[C@H]1CCC[C@@H]1Oc1ccc(C#N)c(C(F)(F)F)c1` [Example 17, (1S,2S)-4-(2-Methyl-cyclopentyloxy)-2-trifluoromethyl-benzonitrile], the IC50 came to 252 nM.

In the case of `N#Cc1ccc(OC2CCC2)cc1C(F)(F)F` [Example 18, 4-Cyclobutoxy-2-trifluoromethyl-benzonitrile], the IC50 amounted to 466 nM.

As to `C[C@@H]1CCCC[C@H]1Oc1ccc(C#N)cc1Cl` [Example 42, (1R,2R)-3-Chloro-4-(2-methyl-cyclohexyloxy)benzonitrile], the half-inhibitory concentration (IC50) is 343 nM.

In the case of `CC1(C)CC(Oc2ccc(C#N)cc2Cl)CC(C)(C)C1` [Example 44, 3-Chloro-4-(3,3,5,5-tetramethyl-cyclohexyloxy)-benzonitrile], the IC50 is 410 nM.

As to `C[C@@H]1CCC[C@H](Oc2ccc(C#N)c(Cl)c2)C1` [Example 48, (1S,3R)-2-Chloro-4-(3-methyl-cyclohexyloxy)-benzonitrile], the IC50 came out at 218 nM.

For `CC1CCC(Oc2ccc(C#N)c(Cl)c2)CC1C` (centres unmarked) [Example 51, 2-Chloro-4-(3,4-dimethyl-cyclohexyloxy)-benzonitrile], the IC50 was determined as 442 nM.

Consider `C[C@H]1CC[C@@H](Oc2ccc(C#N)c(Cl)c2)CC1` [Example 54, (1S,4S)-2-Chloro-4-(4-methyl-cyclohexyloxy)-benzonitrile], for which the concentration for half-maximal inhibition (IC50) stood at 356 nM.

Take `C[C@H]1CC[C@H](Oc2ccc(C#N)cc2Cl)CC1` [Example 59, (1S,4R)-3-Chloro-4-(4-methyl-cyclohexyloxy)-benzonitrile]: the IC50 was 341 nM.

On to `C[C@@H]1CCC[C@H](Oc2ccc(C#N)cc2Cl)C1` [Example 60, (1S,3R)3-Chloro-4-(3-methyl-cyclohexyloxy)-benzonitrile], for which the IC50 stood at 388 nM.

With `CC(C)[C@H]1CC[C@H](C)C[C@@H]1Oc1ccc(C#N)cc1Cl` [Example 61, (1S,2R,5S)-3-Chloro-4-(2-isopropyl-5methyl-cyclohexyloxy)-benzonitrile], the 50% inhibitory concentration (IC50) amounted to 257 nM.

On to `CC1CCCC(Oc2ccc(C#N)cc2Cl)C1C` (centres unmarked) [Example 63, 3-Chloro-4-(2,3-dimethyl-cyclohexyloxy)-benzonitrile], for which the IC50 was 374 nM.

As for `C[C@H]1CC(Oc2ccc(C#N)c(Cl)c2)C[C@H](C)C1` (stereo partly drawn) [Example 65, (3R,5R)-2-Chloro-4-(trans)-(3,5-dimethyl-cyclohexyloxy)-benzonitrile], the IC50 worked out at 437 nM.

For `C[C@@H]1CCC[C@H]1Oc1ccc(C#N)cc1Cl` [Example 66, (1R,2R)-3-Chloro-4-(2-methyl-cyclopentyloxy)-benzonitrile], the IC50 was found to be 402 nM.

Usually IC50 stands for the concentration that gives 50% inhibition.
